The results in this text go back to DBAASP.

Test systems include Bacillus subtilis 168; Staphylococcus aureus; Escherichia coli B; Pseudomonas aeruginosa; Escherichia coli; Bacillus subtilis; Escherichia coli JM109.
Holding throughout (experiment): ≥ marks a high value that may be exact or a test limit, other limits are often not marked, values filed in µg/mL are converted to µM
In test [1] the test system is Candida albicans F7-39/IDE99.
The test system of test [2] is Enterococcus faecalis ATCC 29212.
Test [3] deals with Salmonella enterica subsp. enterica serovar Typhimurium ATCC 14028.
Test [4] relates to Klebsiella pneumoniae ATCC 13883.
Test [5] concerns Streptococcus pyogenes ATCC 19615.
Test [6] has as its system Staphylococcus aureus ATCC 25923.
Test [7] relates to Pseudomonas aeruginosa ATCC 27853.
In test [8] the test system is Bacillus subtilis ATCC 6633.
Test [9] deals with Staphylococcus aureus ATCC 6538P.

Structures are written as SMILES. Values after ≈ are worked out from the molar mass of the structure shown. A value given as a limit tells only on which side of the number the result lay.

As a reminder, the MIC is the least concentration at which growth counts as inhibited.

Consider `CC[C@H](C)[C@H](NC(=O)[C@H](CC(C)C)NC(=O)[C@H](Cc1cnc[nH]1)NC(=O)CNC(=O)[C@H](CC(C)C)NC(=O)[C@@H](NC(=O)[C@H](CCCCN)NC(=O)[C@H](CCCCN)NC(=O)[C@H](Cc1c[nH]c2ccccc12)NC(=O)[C@H](CCCCN)NC(=O)CN)[C@@H](C)CC)C(=O)N[C@@H](CCCN=C(N)N)C(N)=O` [GKWKKILGHLIR], for which the MIC in [1] was 5.3 µM (≈ 7.67 µg/mL); in the test with Bacillus subtilis 168 it was 1.2 µM (≈ 1.74 µg/mL); in the test on Staphylococcus aureus, 28.3 µM (≈ 41 µg/mL); in the test on Escherichia coli B it was 2.7 µM (≈ 3.91 µg/mL); with Pseudomonas aeruginosa, 30 µM (≈ 43.4 µg/mL).

As to `CC(C)C[C@H](NC(=O)[C@H](Cc1c[nH]c2ccccc12)NC(=O)[C@H](CCC(N)=O)NC(=O)[C@@H](N)C(C)C)C(=O)N[C@@H](CCC(=O)O)C(=O)N[C@@H](CCC(N)=O)C(=O)N[C@@H](CCC(N)=O)C(=O)N[C@H](C(=O)N[C@@H](C)C(=O)N[C@@H](CCCCN)C(=O)N[C@@H](CCCN=C(N)N)C(=O)N[C@@H](CCCN=C(N)N)C(=O)N[C@H](C(=O)N[C@@H](CCCCN)C(=O)N[C@@H](CCCN=C(N)N)C(=O)O)[C@@H](C)O)C(C)C` [VQWLEQQVAKRRTKR], the MIC is more than 100 µM in test [2]; more than 100 µM against Escherichia coli; not below 100 µM in the test on Bacillus subtilis; more than 100 µM in test [3]; not below 100 µM in [4]; not below 100 µM in test [5]. The MIC in test [6] and in [7] was more than 100 µM in each case.

For `CC[C@H](C)[C@H](N)C(=O)N[C@@H](CC(N)=O)C(=O)N[C@@H](Cc1c[nH]c2ccccc12)C(=O)N[C@@H](CCCCN)C(=O)N[C@@H](CCCCN)C(=O)N[C@H](C(=O)N[C@@H](C)C(=O)N[C@@H](CCC(=O)O)C(=O)N[C@H](C(=O)NCC(=O)N[C@@H](CCCCN)C(=O)N[C@@H](CCC(N)=O)C(=O)N[C@H](C(=O)N[C@@H](CC(C)C)C(=O)N[C@@H](CO)C(=O)N[C@@H](C)C(=O)N[C@@H](CC(C)C)C(N)=O)C(C)C)[C@@H](C)CC)[C@@H](C)CC` [INWKKIAEIGKQVLSAL], the MIC in test [8] worked out at 1.05 µM (≈ 2 µg/mL); against Escherichia coli JM109, 4.19 µM (≈ 8 µg/mL).

Take `CSCC[C@H](NC(=O)[C@H](CCCCN)NC(=O)[C@H](Cc1ccccc1)NC(=O)CN)C(=O)N[C@@H](C)C(=O)N[C@@H](CC(C)C)C(=O)N[C@@H](CCCCN)C(=O)N[C@@H](CC(C)C)C(=O)N[C@@H](CC(C)C)C(=O)N[C@@H](CCCCN)C(=O)N[C@@H](CCCCN)C(=O)N[C@H](C(=O)N[C@@H](CC(C)C)C(N)=O)C(C)C` [GFKMALKLLKKVL]: the MIC in [1] is 4.3 µM (≈ 6.4 µg/mL); with Bacillus subtilis 168, 1.3 µM (≈ 1.93 µg/mL); in the test with Staphylococcus aureus it was 5 µM (≈ 7.44 µg/mL); in the test with Escherichia coli B it was 2.3 µM (≈ 3.42 µg/mL); with Pseudomonas aeruginosa, 11.3 µM (≈ 16.8 µg/mL).

Consider `CC[C@H](C)[C@H](NC(=O)[C@H](C)NC(=O)[C@H](CC(C)C)NC(=O)[C@H](CC(C)C)NC(=O)[C@H](Cc1c[nH]c2ccccc12)NC(=O)[C@H](C)N)C(=O)N[C@@H](CCCN=C(N)N)C(=O)N[C@@H](CCCN=C(N)N)C(=O)N[C@@H](CCCN=C(N)N)C(N)=O` [AWLLAIRRR], for which the MIC turned out to be 17.3 µM (≈ 20 µg/mL) in the test on Staphylococcus aureus, 1.73 µM (≈ 2 µg/mL) in [9], 2.6 µM (≈ 3 µg/mL) against Escherichia coli JM109 and 3.46 µM (≈ 4 µg/mL) in the test with Pseudomonas aeruginosa.

Regarding `CC[C@H](C)[C@H](NC(=O)[C@@H]1CCCN1C(=O)[C@H](CC(C)C)NC(=O)[C@@H](N)CC(C)C)C(=O)N[C@H](C(=O)NCC(=O)N[C@@H](CC(N)=O)C(=O)N[C@@H](CC(C)C)C(=O)N[C@@H](CC(C)C)C(=O)N[C@@H](CCCCN)C(=O)N[C@@H](CO)C(=O)N[C@@H](CC(C)C)C(=O)N[C@@H](CC(C)C)C(=O)NCC(=O)N[C@@H](C)C(=O)N[C@@H](CCCCN)C(=O)N[C@@H](CCCN=C(N)N)C(=O)N[C@@H](CCCCN)C(=O)N[C@@H](CCCN=C(N)N)C(=O)N[C@@H](C)C(=O)NCC(N)=O)C(C)C` [LLPIVGNLLKSLLGAKRKRAG], the MIC in test [2] is more than 200 µM; in the test with Escherichia coli, 100 µM (≈ 222 µg/mL); in the test on Bacillus subtilis, not below 100 µM; in [3], more than 200 µM; in [4], not below 200 µM; in test [5] it was not below 200 µM. Besides, the minimum inhibitory concentration (MIC) in [6] and in test [7] was 100 µM (≈ 222 µg/mL) each time.
